Experimental data: ChEMBL document CHEMBL1201862, “PubChem BioAssay data set” (2004)
The source made the active and inactive calls.

Legend:
[1] = target: DNA damage-inducible transcript 3 protein (Mus musculus, UniProt P35639); type: functional, Cricetulus griseus
Coagulation factor XII = Coagulation factor XII (Homo sapiens, UniProt P00748); type: functional;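 further: activated factor XIIa alpha cleaving a fluorogenic AMC peptide substrate; inhibitor potency from loss of enzyme activity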
[2] = target: T1, Replicative DNA helicase DnaB (Mycobacterium tuberculosis, UniProt P9WMR3); experiment: DnaB intein splicing inhibitors, dose response, biochemical, cell-free fluorescence (AID 449749); type: functional
T1 sequence (P9WMR3 whole entry): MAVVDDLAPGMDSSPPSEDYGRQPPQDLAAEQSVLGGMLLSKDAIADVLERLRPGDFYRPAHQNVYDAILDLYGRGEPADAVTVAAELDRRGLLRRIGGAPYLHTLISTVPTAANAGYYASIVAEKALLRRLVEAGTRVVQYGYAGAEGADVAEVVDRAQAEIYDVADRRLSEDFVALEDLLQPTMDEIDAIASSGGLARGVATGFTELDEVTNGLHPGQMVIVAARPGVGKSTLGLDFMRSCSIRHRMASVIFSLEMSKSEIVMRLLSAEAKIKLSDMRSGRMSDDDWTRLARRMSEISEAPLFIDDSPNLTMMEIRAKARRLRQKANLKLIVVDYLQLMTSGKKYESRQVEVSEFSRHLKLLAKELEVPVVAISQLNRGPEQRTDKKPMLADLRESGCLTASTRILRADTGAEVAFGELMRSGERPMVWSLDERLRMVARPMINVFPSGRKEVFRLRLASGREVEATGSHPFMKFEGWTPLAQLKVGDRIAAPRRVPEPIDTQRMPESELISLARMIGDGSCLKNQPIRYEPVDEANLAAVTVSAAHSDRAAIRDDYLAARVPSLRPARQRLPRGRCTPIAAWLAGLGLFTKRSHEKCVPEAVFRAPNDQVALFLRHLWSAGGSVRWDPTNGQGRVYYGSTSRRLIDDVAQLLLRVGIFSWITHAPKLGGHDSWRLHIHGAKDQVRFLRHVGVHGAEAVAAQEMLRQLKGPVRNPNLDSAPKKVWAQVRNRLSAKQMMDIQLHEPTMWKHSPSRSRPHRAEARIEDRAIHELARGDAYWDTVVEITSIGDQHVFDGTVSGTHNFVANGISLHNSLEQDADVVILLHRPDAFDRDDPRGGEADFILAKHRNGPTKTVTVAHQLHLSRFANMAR

Protein RecA = target: T2, Protein RecA (Mycobacterium tuberculosis, UniProt P9WHJ3); experiment: Fluorescence Cell-Free Homogeneous Dose Retest to Identify Inhibitors of RecA-Intein Splicing Activity. [Related pubchem assays (depositor defined):AID2097, AID2223, AID489010, AID492950]; type: functional
T2 sequence (P9WHJ3 whole entry): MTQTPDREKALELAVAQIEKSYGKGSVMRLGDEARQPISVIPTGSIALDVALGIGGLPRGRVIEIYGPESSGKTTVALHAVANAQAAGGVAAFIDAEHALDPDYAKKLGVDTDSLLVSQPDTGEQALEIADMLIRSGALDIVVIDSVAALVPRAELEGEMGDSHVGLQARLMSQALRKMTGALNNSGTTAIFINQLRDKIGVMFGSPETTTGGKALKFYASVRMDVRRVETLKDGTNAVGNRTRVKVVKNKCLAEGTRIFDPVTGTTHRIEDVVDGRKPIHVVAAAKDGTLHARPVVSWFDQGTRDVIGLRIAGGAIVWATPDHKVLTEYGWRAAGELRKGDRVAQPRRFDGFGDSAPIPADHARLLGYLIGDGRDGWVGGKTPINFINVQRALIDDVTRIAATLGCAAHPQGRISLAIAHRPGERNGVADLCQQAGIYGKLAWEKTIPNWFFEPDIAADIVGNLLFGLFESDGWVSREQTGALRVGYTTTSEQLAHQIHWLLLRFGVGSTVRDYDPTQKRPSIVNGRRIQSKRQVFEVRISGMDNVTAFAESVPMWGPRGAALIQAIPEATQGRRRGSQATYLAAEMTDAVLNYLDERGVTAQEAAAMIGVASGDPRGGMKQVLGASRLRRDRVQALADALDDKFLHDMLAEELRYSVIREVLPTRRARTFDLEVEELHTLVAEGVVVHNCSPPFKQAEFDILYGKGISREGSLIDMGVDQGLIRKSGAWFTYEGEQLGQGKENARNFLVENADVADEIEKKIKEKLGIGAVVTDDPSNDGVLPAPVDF

[3] = Intein inhibitors as potential Tuberculosis drugs, a cytotoxicity screen. [Related pubchem assays (depositor defined):AID2221, AID2223, AID434968, AID435010, AID449749, AID449750, AID489010]; type: functional
Melanocortin receptor 4 = Melanocortin receptor 4 (Homo sapiens, UniProt P32245); type: functional, cell-based;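 further: Cell-based assay with luminescence read-out, confirmatory dose-response testing for agonist activity of biased ligands at MC4R; human U2OS cells with tagged receptor and beta-arrestin; potency of agonists that increase receptor coupling to beta-arrestin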
Melanocortin receptor 4, sequence (P32245 whole entry): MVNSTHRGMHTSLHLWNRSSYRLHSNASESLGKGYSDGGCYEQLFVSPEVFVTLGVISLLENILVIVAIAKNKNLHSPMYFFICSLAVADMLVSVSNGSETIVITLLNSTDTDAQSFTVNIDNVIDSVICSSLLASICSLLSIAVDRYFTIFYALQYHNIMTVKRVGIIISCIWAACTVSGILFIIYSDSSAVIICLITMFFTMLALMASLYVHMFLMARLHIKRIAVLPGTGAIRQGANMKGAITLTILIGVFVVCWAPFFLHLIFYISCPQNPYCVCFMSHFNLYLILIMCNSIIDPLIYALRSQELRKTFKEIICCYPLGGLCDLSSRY

[4] = target: T3, Sphingosine 1-phosphate receptor 4 (Homo sapiens, UniProt O95977); experiment: Fluorescence dose response cell-based high throughput screening assay for agonists of the Sphingosine 1-Phosphate Receptor 4 (S1P4). [Related pubchem assays: 1509 (Primary screen.), 1523 (Confirmation screen in triplicates.)]; type: functional
T3 sequence (O95977 whole entry): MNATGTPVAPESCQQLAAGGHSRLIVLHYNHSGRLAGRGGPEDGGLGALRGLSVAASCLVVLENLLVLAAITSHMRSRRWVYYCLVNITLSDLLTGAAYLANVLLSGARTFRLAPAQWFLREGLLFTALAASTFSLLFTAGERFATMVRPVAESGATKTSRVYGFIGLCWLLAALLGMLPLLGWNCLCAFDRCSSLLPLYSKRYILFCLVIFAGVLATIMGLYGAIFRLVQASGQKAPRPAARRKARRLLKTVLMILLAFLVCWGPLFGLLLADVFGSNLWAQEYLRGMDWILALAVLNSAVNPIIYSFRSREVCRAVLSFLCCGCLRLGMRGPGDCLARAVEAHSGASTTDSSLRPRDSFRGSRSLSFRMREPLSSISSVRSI

[5] = target: Sphingosine 1-phosphate receptor 1 (Homo sapiens, UniProt P21453); experiment: Fluorescence-based counterscreen assay for S1P4 agonists: Cell-based dose response high throughput screening assay to identify agonists of the Sphingosine 1-Phosphate Receptor 1 (S1P1). [Related pubchem assays (depositor defined):AID1509, AID1523, AID1801, AID463107, AID463118, AID463119, AID463122, AID463123, AID463129, AID463225, AID504400, AID504460]; type: functional
[6] = target: Heat shock protein HSP 90-alpha (Homo sapiens, UniProt P07900); type: functional, organism-based
[7] = Luminescence Cell-Based Dose Retest to Confirm Inhibitors of Cancer Stem Cells. [Related pubchem assays (depositor defined):AID2717, AID2721]; type: functional; conditions: Homo sapiens
[8] = target: NACHT, LRR and PYD domains-containing protein 1 (Homo sapiens, UniProt Q9C000); experiment: NALP1 inhibitors in yeast, dose response, luminescent (AID 488860); type: functional
NACHT, LRR and PYD domains-containing protein 1, sequence (Q9C000 1-1212 limits assumed): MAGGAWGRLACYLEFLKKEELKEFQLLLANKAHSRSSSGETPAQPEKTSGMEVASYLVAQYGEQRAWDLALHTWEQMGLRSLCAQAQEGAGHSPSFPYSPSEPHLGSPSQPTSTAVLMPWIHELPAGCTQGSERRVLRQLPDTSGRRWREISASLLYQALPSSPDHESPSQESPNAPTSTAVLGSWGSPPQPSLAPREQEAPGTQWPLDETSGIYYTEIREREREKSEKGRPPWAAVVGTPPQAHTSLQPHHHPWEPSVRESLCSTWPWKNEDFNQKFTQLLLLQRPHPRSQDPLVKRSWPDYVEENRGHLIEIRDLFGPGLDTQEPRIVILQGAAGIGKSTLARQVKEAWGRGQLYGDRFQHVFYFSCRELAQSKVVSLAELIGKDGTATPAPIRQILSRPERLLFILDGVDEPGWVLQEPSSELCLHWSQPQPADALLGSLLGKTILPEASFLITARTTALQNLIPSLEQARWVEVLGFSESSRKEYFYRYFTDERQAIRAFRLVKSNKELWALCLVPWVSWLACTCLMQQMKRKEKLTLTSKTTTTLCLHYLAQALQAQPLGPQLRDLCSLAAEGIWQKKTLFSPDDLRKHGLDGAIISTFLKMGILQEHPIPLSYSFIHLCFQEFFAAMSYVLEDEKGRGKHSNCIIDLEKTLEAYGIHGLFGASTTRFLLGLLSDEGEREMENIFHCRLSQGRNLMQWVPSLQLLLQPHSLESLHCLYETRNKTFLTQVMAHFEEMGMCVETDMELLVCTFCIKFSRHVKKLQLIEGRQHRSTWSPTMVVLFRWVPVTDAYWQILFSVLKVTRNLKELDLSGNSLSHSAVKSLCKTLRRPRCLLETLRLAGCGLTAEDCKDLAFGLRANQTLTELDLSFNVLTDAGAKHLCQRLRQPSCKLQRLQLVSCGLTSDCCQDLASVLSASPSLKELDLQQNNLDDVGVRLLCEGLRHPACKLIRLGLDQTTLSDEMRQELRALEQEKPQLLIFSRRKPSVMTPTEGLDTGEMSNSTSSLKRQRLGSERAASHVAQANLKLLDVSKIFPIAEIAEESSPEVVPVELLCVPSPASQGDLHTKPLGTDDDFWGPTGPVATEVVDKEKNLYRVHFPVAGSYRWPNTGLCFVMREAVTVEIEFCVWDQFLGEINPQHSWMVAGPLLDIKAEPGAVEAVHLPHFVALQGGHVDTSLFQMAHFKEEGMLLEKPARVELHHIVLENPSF
NACHT, LRR and PYD domains-containing protein 1, sequence (Q9C000 1213-1473 limits assumed): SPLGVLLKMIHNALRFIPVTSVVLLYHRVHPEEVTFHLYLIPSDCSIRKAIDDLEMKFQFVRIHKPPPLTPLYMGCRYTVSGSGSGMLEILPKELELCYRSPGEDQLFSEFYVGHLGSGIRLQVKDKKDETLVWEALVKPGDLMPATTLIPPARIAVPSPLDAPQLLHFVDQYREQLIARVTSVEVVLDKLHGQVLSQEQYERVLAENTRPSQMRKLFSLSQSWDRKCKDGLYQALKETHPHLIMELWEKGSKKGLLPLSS

Beta-galactosidase = Beta-galactosidase (Escherichia coli, UniProt Q8VNN2); experiment: detection-enzyme interference by beta-gal modulators – biochemical, E. coli enzyme, set 3, artefact control for CCR6 antagonist project, dose response (AID 504712); type: functional
Saccharomyces cerevisiae = experiment: S. cerevisiae Caspase-1/ASC signal blockers IC50, NALP1 inhibitor project selectivity test (AID 488863); type: functional, organism-based
[9] = target: T4, G-protein coupled receptor 55 (Homo sapiens, UniProt Q9Y2T6); experiment: selective activators of receptor GPR55 – imaging, U2OS cells, beta-arrestin-GFP redistribution, primary screen (AID 1961); type: functional
T4 sequence (Q9Y2T6 whole entry): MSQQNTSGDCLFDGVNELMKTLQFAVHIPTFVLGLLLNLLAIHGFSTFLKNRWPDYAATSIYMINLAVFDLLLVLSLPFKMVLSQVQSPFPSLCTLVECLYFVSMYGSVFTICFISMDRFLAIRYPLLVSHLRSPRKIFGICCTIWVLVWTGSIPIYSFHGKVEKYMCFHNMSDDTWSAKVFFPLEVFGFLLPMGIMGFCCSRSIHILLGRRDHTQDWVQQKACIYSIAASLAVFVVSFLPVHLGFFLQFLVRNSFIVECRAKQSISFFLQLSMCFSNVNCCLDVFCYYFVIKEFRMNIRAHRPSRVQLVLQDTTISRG

Phosphomannomutase 2 = Phosphomannomutase 2 (Homo sapiens, UniProt O15305); experiment: Counter screen SAR assay for PMM2 inhibitors via a fluorescence intensity assay. [Related pubchem assays (depositor defined):AID1545, AID1574]
Phosphomannomutase 2, sequence (O15305 whole entry): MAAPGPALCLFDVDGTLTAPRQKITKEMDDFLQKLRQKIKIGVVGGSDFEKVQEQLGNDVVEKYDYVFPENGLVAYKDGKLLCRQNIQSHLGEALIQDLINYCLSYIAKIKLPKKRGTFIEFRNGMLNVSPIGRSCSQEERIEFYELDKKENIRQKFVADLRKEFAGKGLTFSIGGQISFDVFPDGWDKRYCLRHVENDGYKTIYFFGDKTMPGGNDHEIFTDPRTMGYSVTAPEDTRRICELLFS

[10] = target: T5, Mannose-6-phosphate isomerase (Homo sapiens, UniProt P34949); experiment: phosphomannose isomerase inhibition – biochemical, fluorescence intensity, confirmation (AID 1535)
T5 sequence (P34949 whole entry): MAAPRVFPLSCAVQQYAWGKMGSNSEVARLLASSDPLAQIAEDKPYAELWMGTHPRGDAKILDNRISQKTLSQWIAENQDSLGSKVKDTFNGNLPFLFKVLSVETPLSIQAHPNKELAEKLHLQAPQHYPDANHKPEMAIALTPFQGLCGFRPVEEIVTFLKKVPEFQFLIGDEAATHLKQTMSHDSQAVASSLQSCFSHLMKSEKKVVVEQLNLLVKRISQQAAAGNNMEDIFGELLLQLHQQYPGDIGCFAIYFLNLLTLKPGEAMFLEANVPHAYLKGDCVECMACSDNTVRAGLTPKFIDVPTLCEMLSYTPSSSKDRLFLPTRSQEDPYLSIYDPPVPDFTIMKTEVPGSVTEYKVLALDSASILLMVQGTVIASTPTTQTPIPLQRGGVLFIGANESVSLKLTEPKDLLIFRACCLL

Hexokinase = Hexokinase (Trypanosoma brucei, UniProt Q38C41); experiment: Confirmation assay for inhibitors of Trypanosoma brucei hexokinase 1-Analogue-first series. [Related pubchem assays (depositor defined):AID1430, AID1632, AID2516, AID2560, AID2579, AID2600, AID449725, AID492951]; type: functional
Hexokinase, sequence (Q38C41 whole entry, the tested form may be a part): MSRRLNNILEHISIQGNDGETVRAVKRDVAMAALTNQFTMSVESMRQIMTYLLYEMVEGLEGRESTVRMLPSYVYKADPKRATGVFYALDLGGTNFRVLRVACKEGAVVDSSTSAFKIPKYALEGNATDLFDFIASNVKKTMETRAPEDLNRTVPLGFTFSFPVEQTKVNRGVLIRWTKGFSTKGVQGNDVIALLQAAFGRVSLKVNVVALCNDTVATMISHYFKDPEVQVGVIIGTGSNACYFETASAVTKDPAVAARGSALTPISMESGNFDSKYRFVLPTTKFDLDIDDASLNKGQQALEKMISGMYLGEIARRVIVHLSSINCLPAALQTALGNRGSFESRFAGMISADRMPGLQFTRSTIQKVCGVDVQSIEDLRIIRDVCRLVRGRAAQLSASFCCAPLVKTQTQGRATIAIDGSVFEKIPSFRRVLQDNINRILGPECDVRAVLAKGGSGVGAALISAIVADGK

[11] = target: T6, Type-1 angiotensin II receptor (Homo sapiens, UniProt P30556); experiment: agonist activity at AGTR1 – cell-based, uHTS hits, selectivity assay for APJ receptor agonist project, dose response (AID 488865); type: functional;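 further: beta-arrestin recruitment to AT1 measured by enzyme fragment complementation luminescence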
T6 sequence (P30556 whole entry): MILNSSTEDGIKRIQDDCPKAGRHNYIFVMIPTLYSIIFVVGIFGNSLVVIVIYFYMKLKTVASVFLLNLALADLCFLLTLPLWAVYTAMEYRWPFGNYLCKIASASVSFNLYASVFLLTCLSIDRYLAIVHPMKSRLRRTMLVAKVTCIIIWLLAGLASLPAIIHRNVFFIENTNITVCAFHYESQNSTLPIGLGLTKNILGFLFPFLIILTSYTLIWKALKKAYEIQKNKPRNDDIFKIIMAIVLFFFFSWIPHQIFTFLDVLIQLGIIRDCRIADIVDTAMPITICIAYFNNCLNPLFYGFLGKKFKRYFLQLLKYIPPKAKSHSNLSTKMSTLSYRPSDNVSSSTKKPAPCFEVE

[12] = target: Voltage-dependent T-type calcium channel subunit alpha-1H (Homo sapiens, UniProt O95180); experiment: human CACNA1H calcium influx blockade – cell-based, synthetic library set 1, calcium flux (AID 493022); type: functional
Cannabinoid receptor 1 [13] = target: T7, Cannabinoid receptor 1 (Homo sapiens, UniProt P21554); experiment: SAR analysis of agonists of the Cannabinoid Receptor 1 using an Image-Based Assay - Set 3. [Related pubchem assays (depositor defined):AID1961, AID1965]; type: functional
T7 sequence (P21554 whole entry): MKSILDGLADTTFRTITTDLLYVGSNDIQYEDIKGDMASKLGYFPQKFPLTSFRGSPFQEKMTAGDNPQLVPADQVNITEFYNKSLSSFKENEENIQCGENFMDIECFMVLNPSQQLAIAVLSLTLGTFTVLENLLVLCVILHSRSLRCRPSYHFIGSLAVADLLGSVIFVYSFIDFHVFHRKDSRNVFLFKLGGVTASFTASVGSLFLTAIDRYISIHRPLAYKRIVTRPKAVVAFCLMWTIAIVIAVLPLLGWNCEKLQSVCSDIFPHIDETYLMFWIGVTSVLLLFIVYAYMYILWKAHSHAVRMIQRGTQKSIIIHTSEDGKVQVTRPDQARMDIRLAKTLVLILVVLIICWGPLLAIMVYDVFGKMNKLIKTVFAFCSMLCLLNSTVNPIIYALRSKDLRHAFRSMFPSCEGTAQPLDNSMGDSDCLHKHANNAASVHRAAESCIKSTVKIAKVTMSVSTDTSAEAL

[14] = target: T8, G-protein coupled receptor 35 (Homo sapiens, UniProt Q9HC97); experiment: SAR analysis of Agonists of the GPR35 Receptor using an Image-Based Assay - Set 3. [Related pubchem assays (depositor defined):AID1961, AID1965]; type: functional
T8 sequence (Q9HC97 whole entry): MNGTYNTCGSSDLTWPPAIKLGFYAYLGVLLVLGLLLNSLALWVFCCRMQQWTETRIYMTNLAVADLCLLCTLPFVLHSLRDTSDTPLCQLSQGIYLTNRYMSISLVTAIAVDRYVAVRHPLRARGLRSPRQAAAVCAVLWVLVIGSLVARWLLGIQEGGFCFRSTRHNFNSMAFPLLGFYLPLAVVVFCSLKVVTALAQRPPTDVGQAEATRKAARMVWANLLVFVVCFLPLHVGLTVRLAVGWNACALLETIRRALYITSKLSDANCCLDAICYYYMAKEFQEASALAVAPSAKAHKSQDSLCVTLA

Cannabinoid receptor 2 [15] = target: T9, Cannabinoid receptor 2 (Homo sapiens, UniProt P34972); experiment: SAR analysis of antagonists of the Cannabinoid Receptor 2 using an Image-Based Assay - Set 2. [Related pubchem assays (depositor defined):AID1961, AID1965]; type: functional
T9 sequence (P34972 whole entry): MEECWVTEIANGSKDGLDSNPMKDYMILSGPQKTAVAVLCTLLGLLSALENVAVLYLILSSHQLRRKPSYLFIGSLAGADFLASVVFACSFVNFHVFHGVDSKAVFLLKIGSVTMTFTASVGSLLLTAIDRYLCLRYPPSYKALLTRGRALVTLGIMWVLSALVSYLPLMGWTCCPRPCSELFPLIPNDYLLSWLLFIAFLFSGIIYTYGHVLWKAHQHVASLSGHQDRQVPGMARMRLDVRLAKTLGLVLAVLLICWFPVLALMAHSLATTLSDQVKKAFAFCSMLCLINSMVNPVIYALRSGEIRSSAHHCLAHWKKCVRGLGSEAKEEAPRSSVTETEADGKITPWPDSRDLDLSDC

[16] = target: T8, G-protein coupled receptor 35; experiment: SAR analysis of Antagonists of the GPR35 Receptor using an Image-Based Assay - Set 4. [Related pubchem assays (depositor defined):[…]]; type: functional
Cannabinoid receptor 1 [17] = target: T7, Cannabinoid receptor 1; experiment: SAR analysis of antagonists of the Cannabinoid Receptor 1 using an Image-Based Assay - Set 3. [Related pubchem assays (depositor defined):AID1961, AID1965]; type: functional
[18] = target: T4, G-protein coupled receptor 55; experiment: SAR analysis of selective Agonists of GPR55 using an Image-Based Assay - Set 2. [Related pubchem assays (depositor defined):AID1961, AID1965]; type: functional
Cannabinoid receptor 2 [19] = target: T9, Cannabinoid receptor 2; experiment: SAR analysis of agonists of the Cannabinoid Receptor 2 using an Image-Based Assay - Set 2. [Related pubchem assays (depositor defined):AID1961, AID1965]; type: functional
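Wherever CC50 is given: cells exposed to compound for 72 hours before luminescence readout.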

DNA damage-inducible transcript 3 protein, sequence (P35639 whole entry): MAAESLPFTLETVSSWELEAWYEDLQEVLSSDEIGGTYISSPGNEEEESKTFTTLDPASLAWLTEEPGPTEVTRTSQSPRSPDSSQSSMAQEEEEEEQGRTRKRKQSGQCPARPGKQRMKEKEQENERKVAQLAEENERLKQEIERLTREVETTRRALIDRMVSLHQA
Coagulation factor XII, sequence (P00748 20-372 limits assumed): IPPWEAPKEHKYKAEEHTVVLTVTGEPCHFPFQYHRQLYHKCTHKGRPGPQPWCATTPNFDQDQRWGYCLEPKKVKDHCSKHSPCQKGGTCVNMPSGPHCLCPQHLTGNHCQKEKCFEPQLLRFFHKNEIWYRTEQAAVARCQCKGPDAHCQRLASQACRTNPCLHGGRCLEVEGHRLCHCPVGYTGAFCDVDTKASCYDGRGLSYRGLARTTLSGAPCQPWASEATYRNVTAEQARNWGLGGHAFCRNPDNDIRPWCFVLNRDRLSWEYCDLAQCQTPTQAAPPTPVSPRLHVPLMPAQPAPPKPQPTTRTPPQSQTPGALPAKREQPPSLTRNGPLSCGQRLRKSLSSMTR
Coagulation factor XII, sequence (P00748 373-615 limits assumed): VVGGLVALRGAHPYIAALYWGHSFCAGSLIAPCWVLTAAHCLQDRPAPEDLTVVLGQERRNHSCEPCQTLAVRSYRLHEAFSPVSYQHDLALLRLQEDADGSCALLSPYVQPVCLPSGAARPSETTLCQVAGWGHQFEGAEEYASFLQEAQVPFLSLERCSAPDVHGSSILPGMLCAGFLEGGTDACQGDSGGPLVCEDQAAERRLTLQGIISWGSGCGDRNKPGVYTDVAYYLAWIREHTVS

CC(C)(C)C1C/C(=C/c2ccco2)C(=O)/C(=C/c2ccco2)C1 (stereo unspecified)
Absolute IC50 (CHOP) [1]: < 10 µM

Cc1cc(=O)oc2cc(OC(=O)CCN3C(=O)c4ccccc4C3=O)ccc12
IC50 (Coagulation factor XII): > 50 µM (inactive)

Cc1ccc(Sc2ccc(NC(=O)CCl)cc2)cc1C
AC50 [2]: 2.51 µM (active) | EC50 (Protein RecA): 0.716 µM (active) | CC50 [3]: 7.87 µM (active) | EC50 (Melanocortin receptor 4): > 89.2 µM (inactive)

CCN(c1ccccc1)S(=O)(=O)c1cc([N+](=O)[O-])ccc1N
EC50 [4]: 9.34 µM (active) | EC50 [5]: > 49.8 µM (inactive)

Cc1cc(N2C(=O)C=CC2=O)c([N+](=O)[O-])cc1C
AC50 [6]: 1.07 µM (active) | AC50 [7]: 4.18 µM (active) | IC50 [8]: 17.7 µM (active) | IC50 (Beta-galactosidase): > 66.6 µM (inactive) | IC50 (Saccharomyces cerevisiae): 23.9 µM (active)

CCCc1ccc2oc(C(=O)N(Cc3ccncc3)CC3CCCO3)c(C)c2c1 (stereo unspecified)
EC50 [9]: 11.2 µM (inactive)

COc1ccc(C/N=c2\ssnc2Cl)cc1
IC50 (Phosphomannomutase 2): > 100 µM (inactive) | IC50 [10]: 15.5 µM (active)

O=c1c2cc(N3CCOCC3)ccc2sn1-c1ccccc1
IC50 (Hexokinase): 4.46 µM (active)

CCOc1cc2[nH]c(=S)n(CCN3CCC(C)CC3)c(=O)c2cc1OCC
EC50 [11]: > 100 µM (inactive)

Cc1ccc(-c2nnc(NC(=O)COc3ccc(F)cc3Cl)o2)cc1C
EC50 [12]: 1.1 µM (active)

COc1ccc(S(=O)(=O)N2CCOCC2)cc1NC(=O)c1cc2c(s1)CCCCC2
EC50 (Cannabinoid receptor 1 [13]): > 32 µM (inactive) | EC50 [14]: > 32 µM (inactive) | IC50 (Cannabinoid receptor 2 [15]): > 32 µM (inactive) | IC50 [16]: > 32 µM (inactive) | IC50 (Cannabinoid receptor 1 [17]): 20.6 µM (inactive) | EC50 [18]: > 32 µM (inactive) | EC50 (Cannabinoid receptor 2 [19]): > 32 µM (inactive)
